Results: patent publication US4820695A, “C-20-dihydro-deoxy-(cyclic amino)-derivatives of macrolide antibiotics” (priority 1987, dated 1989)
Values after ≈ are worked out from the molar mass of the structure shown. Where two headings read alike, the source gives them in different places.

Legend:
Staphyloccus aureus X1.1 = test: MIC, standard agar-dilution assay (Table IX); assay type: cell-based, Staphylococcus aureus; settings: Staphylococcus aureus, read-out: MIC
[1] = tested on: Staphylococcus aureus V41; test: MIC, standard agar-dilution assay (Table IX); assay type: cell-based; settings: Staphylococcus aureus V41, Penicillin-resistant strain, read-out: MIC
[2] = tested on: Staphylococcus aureus X400; test: MIC, standard agar-dilution assay (Table IX); assay type: cell-based; settings: Staphylococcus aureus X400, Methicillin-resistant strain, read-out: MIC
[3] = tested on: Staphylococcus aureus S13E; test: MIC, standard agar-dilution assay (Table IX); assay type: cell-based; settings: Staphylococcus aureus, S13E
[4] = tested on: Staphylococcus epidermidis EPI1; test: MIC, standard agar-dilution assay (Table IX); assay type: cell-based; settings: Staphylococcus epidermidis EPI1; agar-dilution; read-out: MIC
[5] = tested on: Staphylococcus epidermidis 222; test: MIC, standard agar-dilution assay (Table IX); assay type: cell-based; settings: read-out: MIC
[6] = tested on: Streptococcus pyogenes C203; test: MIC, standard agar-dilution assay (Table IX); assay type: cell-based; settings: read-out: MIC
[7] = tested on: Streptococcus pneumoniae Park I; test: MIC, standard agar-dilution assay (Table IX); assay type: cell-based; settings: Streptococcus pneumoniae Park I; agar-dilution; read-out: MIC
[8] = tested on: Streptococcus Group D X66; test: MIC, standard agar-dilution assay (Table IX); assay type: cell-based; settings: read-out: MIC
[9] = tested on: Streptococcus Group D 2041; test: MIC, standard agar-dilution assay (Table IX); assay type: cell-based; settings: GROUPD2041, read-out: MIC
[10] = tested on: Haemophilus influenzae C.L.; test: MIC, standard agar-dilution assay (Table IX); assay type: cell-based; settings: Ampicillin-sensitive strain, read-out: MIC
[11] = tested on: Haemophilus influenzae 76; test: MIC, standard agar-dilution assay (Table IX); assay type: cell-based; settings: Haemophilus influenzae 76, Ampicillin-resistant strain, read-out: MIC
Escherichia coli N10 = test: MIC, standard agar-dilution assay (Table IX); assay type: cell-based; settings: read-out: MIC
Escherichia coli EC14 = test: MIC, standard agar-dilution assay (Table IX); assay type: cell-based; settings: read-out: MIC
Escherichia coli TEM = test: MIC, standard agar-dilution assay (Table IX); assay type: cell-based; settings: read-out: MIC
Klebsiella X26 = test: MIC, standard agar-dilution assay (Table IX); assay type: cell-based; settings: read-out: MIC
[12] = tested on: Mycoplasma gallisepticum 29C; test: MIC, broth-dilution microtiter test (Table X); assay type: cell-based; settings: Mycoplasmoides gallisepticum, read-out: MIC
Excerpt: (§1) The MIC's in Table X were obtained using conventional broth-dilution microtiter tests.

[13] = tested on: Mycoplasma hyopneumoniae S5972; test: MIC, broth-dilution microtiter test (Table X); assay type: cell-based; settings: Mesomycoplasma hyopneumoniae, read-out: MIC
Excerpt: as §1

Mycoplasma hyorhinis 29E = test: MIC, broth-dilution microtiter test (Table X); assay type: cell-based; settings: read-out: MIC
Excerpt: as §1

Mycoplasma synoviae 40A = test: MIC, broth-dilution microtiter test (Table X); assay type: cell-based; settings: Mycoplasmopsis synoviae, read-out: MIC
Excerpt: as §1

[14] = tested on: Pasteurella hemolytica 22C; test: MIC, broth-dilution microtiter test (Table X); assay type: cell-based; settings: read-out: MIC
Excerpt: as §1

[15] = tested on: Pasteurella multocida 17E; test: MIC, broth-dilution microtiter test (Table X); assay type: cell-based; settings: Bovine isolate, read-out: MIC
Excerpt: as §1

[16] = tested on: Pasteurella multocida 60A; test: MIC, broth-dilution microtiter test (Table X); assay type: cell-based; settings: Avian isolate, read-out: MIC
Excerpt: as §1

Staphylococcus aureus = test: MIC, broth-dilution microtiter test (Table X); assay type: cell-based; settings: read-out: MIC
Excerpt: as §1

Streptococcus sp. 19F = test: MIC, broth-dilution microtiter test (Table X); assay type: cell-based; settings: read-out: MIC
Excerpt: as §1

[17] = tested on: Streptococcus pyogenes C203; test: ED50 in mice experimentally infected with S. pyogenes C203 (Table XI); assay type: in vivo; settings: Streptococcus pyogenes, doses given 1 and 4 hours postinfection, read-out: ED50
Outline: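 Mice infected with S. pyogenes C203 received two doses of compound, 1 and 4 h post-infection. ED50 is the dose in mg/kg (per dose, ×2) protecting 50% of animals.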

Pasteurella multocida [18] = test: Pasteurella infection in one-day-old chicks, subcutaneous administration (Table XII); assay type: in vivo; settings: Administered subcutaneously, 30 mg/kg × 2, 1 and 4 hours post-challenge
Procedure: (§2) Many of the C-20 modified derivatives of this invention have also shown in vivo antibacterial activity against infections induced by gram-negative bacteria. Tables XII and XIII summarize the results of tests in which illustrative compounds were evaluated against a Pasteurella infection in one-day-old chicks. The compounds were administered parenterally or orally after challenge of the chicks with Pasteurella multocida (0.1 ml of a 10^-4 dilution of a twenty-hour tryptose broth culture of an avian P. multocida given subcutaneously). In these tests, unless indicated otherwise, all non-medicated infected chicks died within 24 hours of Pasteurella challenge. In the tests summarized in Table XII, the compounds were administered by subcutaneous injection at a dosage of 30 mg/kg, 1 and 4 hours post-challenge of the chicks with P. multocida. In the tests summarized in Table XIII the compounds were administered in medicated drinking water (at a level of 2 g/gal) available from 4 to 20 hours prior to challenge of the chicks with P. multocida and during the 3 -day test period.
^a Administered subcutaneously; 30 mg/kg × 2

Pasteurella multocida [19] = test: Pasteurella infection in one-day-old chicks, medicated drinking water (Table XIII); assay type: in vivo; settings: Administered in the available drinking water at 2 g/gal
Procedure: as §2
^a Administered in the available drinking water at a concentration of […]

[20] = Titratable groups in 66% aqueous DMF (Tables XIV-XVI); assay type: physicochemical
Excerpt: ^c Run in 66% aqueous DMF
^d Run in 66% aqueous DMF

[21] = Titratable groups (first value)

| SMILES | MIC (Staphyloccus aureus X1.1) [µg/mL] | MIC [1] [µg/mL] | MIC [2] [µg/mL] | MIC [3] [µg/mL] | MIC [4] [µg/mL] | MIC [5] [µg/mL] | MIC [6] [µg/mL] | MIC [7] [µg/mL] | MIC [8] [µg/mL] | MIC [9] [µg/mL] | MIC [10] [µg/mL] | MIC [11] [µg/mL] | MIC (Escherichia coli N10) [µg/mL] | MIC (Escherichia coli EC14) [µg/mL] | MIC (Escherichia coli TEM) [µg/mL] | MIC (Klebsiella X26) [µg/mL] | MIC [12] [µg/mL] | MIC [13] [µg/mL] | MIC (Mycoplasma hyorhinis 29E) [µg/mL] | MIC (Mycoplasma synoviae 40A) [µg/mL] | other results |
| --- | --- | --- | --- | --- | --- | --- | --- | --- | --- | --- | --- | --- | --- | --- | --- | --- | --- | --- | --- | --- | --- |
| CCC1OC(=O)CC(O)C(C)C(OC2OC(C)C(O)C(N(C)C)C2O)C(CCN2CCCC23CCCCC3)CC(C)C(=O)C=CC(C)=CC1COC1OC(C)C(O)C(OC)C1OC (stereo not drawn) [Compound D19, 20-DH-DO-20-[1-Azaspiro[4.5]decan-1-yl]desmycosin] | 1 (≈ 1.12 µM) | 1 (≈ 1.12 µM) | 1 (≈ 1.12 µM) | 1 (≈ 1.12 µM) | 1 (≈ 1.12 µM) | 0.25 (≈ 0.279 µM) | 0.5 (≈ 0.559 µM) | 0.25 (≈ 0.279 µM) | 16 (≈ 17.9 µM) | 16 (≈ 17.9 µM) | 16 (≈ 17.9 µM) | 16 (≈ 17.9 µM) | 128 (≈ 143 µM) | 128 (≈ 143 µM) | 32 (≈ 35.7 µM) | 32 (≈ 35.7 µM) | 1.56 (≈ 1.74 µM) | 3.12 (≈ 3.49 µM) | > 50 | 0.39 (≈ 0.436 µM) | MIC [14]: 3.12 µg/mL (≈ 3.49 µM); MIC [15]: 3.12 µg/mL (≈ 3.49 µM); MIC [16]: 3.12 µg/mL (≈ 3.49 µM); MIC (Staphylococcus aureus): 0.78 µg/mL (≈ 0.871 µM); MIC (Streptococcus sp. 19F): 3.12 µg/mL (≈ 3.49 µM); ED50 ([17]; C203, Oral): 46 mg/kg; ED50 ([17]; C203, sc, Subcutaneous): 2.9 mg/kg; Number of Deaths/Number Treated (Pasteurella multocida [18]): 0/10; Number of Deaths/Number Treated (Pasteurella multocida [19]): 3/10; pKa ([20]; Titratable groups): 9.8; pKa [20, 21]: 7.9 |
| CCC1OC(=O)CC(O)C(C)C(OC2OC(C)C(O)C(N(C)C)C2O)C(CCN2CCCCCCCC2)CC(C)C(=O)C=CC(C)=CC1COC1OC(C)C(O)C(OC)C1OC (stereo not drawn) [Compound D7, 20-DH-DO-20-(octahydro-1H-azonin-1-yl)desmycosin] | 0.5 (≈ 0.566 µM) | 0.5 (≈ 0.566 µM) | 0.5 (≈ 0.566 µM) | 0.5 (≈ 0.566 µM) | 0.5 (≈ 0.566 µM) | 0.25 (≈ 0.283 µM) | 0.06 (≈ 0.0679 µM) | 0.5 (≈ 0.566 µM) | 4 (≈ 4.53 µM) | 8 (≈ 9.06 µM) | 16 (≈ 18.1 µM) | 16 (≈ 18.1 µM) | 64 (≈ 72.5 µM) | 64 (≈ 72.5 µM) | 16 (≈ 18.1 µM) | > 128 | 0.39 (≈ 0.442 µM) | 1.56 (≈ 1.77 µM) | 25 (≈ 28.3 µM) | 0.39 (≈ 0.442 µM) | MIC [14]: 3.12 µg/mL (≈ 3.53 µM); MIC [15]: 6.25 µg/mL (≈ 7.08 µM); MIC [16]: 6.25 µg/mL (≈ 7.08 µM); MIC (Staphylococcus aureus): 1.56 µg/mL (≈ 1.77 µM); MIC (Streptococcus sp. 19F): 3.12 µg/mL (≈ 3.53 µM); ED50 ([17]; C203, Oral): 12 mg/kg; ED50 ([17]; C203, sc, Subcutaneous): 1.6 mg/kg; Number of Deaths/Number Treated (Pasteurella multocida [18]): 3/10; Number of Deaths/Number Treated (Pasteurella multocida [19]): 2/10; pKa ([20]; Titratable groups): 9; pKa [20, 21]: 7.9 |
| CCC1OC(=O)CC(O)C(C)C(OC2OC(C)C(O)C(N(C)C)C2O)C(CCN2CCCCC2)CC(C)C(=O)C=CC(C)=CC1COC1OC(C)C(O)C(OC)C1OC (stereo not drawn) [Compound D2, 20-DH-DO-20-(piperidin-1-yl)desmycosin] | 0.5 (≈ 0.594 µM) | 0.5 (≈ 0.594 µM) | 1 (≈ 1.19 µM) | 0.5 (≈ 0.594 µM) | 1 (≈ 1.19 µM) | 0.5 (≈ 0.594 µM) | 0.25 (≈ 0.297 µM) | 0.25 (≈ 0.297 µM) | 16 (≈ 19 µM) | 16 (≈ 19 µM) | 16 (≈ 19 µM) | 16 (≈ 19 µM) | > 128 | > 128 | 16 (≈ 19 µM) | 16 (≈ 19 µM) | 3.12 (≈ 3.71 µM) | 12.5 (≈ 14.9 µM) | > 50 | 0.78 (≈ 0.927 µM) | MIC [14]: 3.12 µg/mL (≈ 3.71 µM); MIC [15]: 25 µg/mL (≈ 29.7 µM); MIC [16]: 6.25 µg/mL (≈ 7.43 µM); MIC (Staphylococcus aureus): 0.78 µg/mL (≈ 0.927 µM); MIC (Streptococcus sp. 19F): 6.25 µg/mL (≈ 7.43 µM); ED50 ([17]; C203, Oral): 50 mg/kg; ED50 ([17]; C203, sc, Subcutaneous): 0.9 mg/kg; Number of Deaths/Number Treated (Pasteurella multocida [18]): 0/10; Number of Deaths/Number Treated (Pasteurella multocida [19]): 5/10; pKa ([20]; Titratable groups): 9.1; pKa [20, 21]: 7.8 |
